These results are taken from patent US20140037721A1, “Pharmaceutical Composition” (Alpharma pharmaceuticals LLC, priority 2007, published 2014).

For data set [1] the following is noted: in comparison to a 15 mg dose of hydrocodone.
Data set [2] relates to opioid receptors. To be noted: cited from earlier work.
The conditions of data set [3]: cited from earlier work.

Where a name gives a salt, the structure may show the parent alone.

Turning to `COc1ccc2c3c1O[C@H]1[C@@H](O)C=C[C@H]4[C@@H](C2)N(C)CC[C@@]341` [Codeine, codeine], the “Equianalgesic Calculated Dose” value in data set [1] is 90.0 mg.
Turning to `COc1ccc2c3c1OC1C(=O)CC[C@H]4[C@@H](C2)N(C)CC[C@]314` (stereo partly drawn) [Hydrocodone, 4,5-epoxy-3-methoxy-17-methylmorphinan-6-one], the “Equianalgesic Calculated Dose” value in data set [1] is recorded as 15.0 mg.
With `CN1CC[C@]23CCCC[C@H]2[C@H]1Cc1ccc(O)cc13` [Levorphanol, levorphanol], in data set [1], the “Equianalgesic Calculated Dose” value is reported as 1.8 mg.
`CCC(=O)C(CC(C)N(C)C)(c1ccccc1)c1ccccc1` (stereo not drawn) [Methadone, methadone]: the “Equianalgesic Calculated Dose” value in data set [1] is listed as 9.0 mg.
`COc1ccc2c3c1OC1C(=O)CC[C@@]4(O)[C@@H](C2)N(C)CC[C@]314` (stereo partly drawn) [Oxycodone, 4,5-epoxy-14-hydroxy-3-methoxy-17-methylmorphinan-6-one]: the “Equianalgesic Calculated Dose” value in data set [1] was 13.5 mg.
As for `C[C@H]1[C@H]2Cc3ccc(O)cc3[C@]1(C)CCN2CC1CC1` [cyclazocine], in data set [2] (in vivo, po), the “duration of action after oral administration” value is roughly 24 h.
For `O=C1CC[C@@]2(O)[C@H]3Cc4ccc(O)c5c4[C@@]2(CCN3CC2CC2)[C@H]1O5` [hydrochloride salt of naltrexone, naltrexone hydrochloride], the solubility in water result in data set [3] is given as “about 100 mg/cc”.
Take `O=C1CC[C@@]2(O)[C@H]3Cc4ccc(O)c5c4[C@@]2(CCN3CC2CC2)[C@H]1O5` [naltrexone]: the “blockade of morphine effects” value in data set [2] (normal volunteers, three 100-mg doses, MS Contin) is given as “blocked”.
With meperidine, in data set [1], the “Equianalgesic Calculated Dose” value is recorded as 135.0 mg.
